Data published in patent US12133486B2, “Methods of propagation of arbuscular mycorrhizal fungi (AMF) and uses thereof” (Terra Microbes, LLC, priority 2021, dated 2024).

Test system: AM fungi infection of yellow sweet clover (Melilotus officinalis) roots
Assay: Pot study: AM infection level of yellow sweet clover roots
Format: in vivo
Details: YBSC plants; 80 ppm treatment P; 66 days; infected 1.1 mm root segments per 80 examined
Source text: This Example is an un-replicated study to examine whether PO3^−3 (phosphite) impacts spore production and infection rate of AM fungi. The fungi were a mixed inoculum source from the University of West Virginia (UWV). UWV holds and maintains the International Culture Collection of (Vesicular) Arbuscular Mycorrhizal Fungi (INVAM). The plant used was yellow blossom sweet clover (Melilotus officinalis). All pots were inoculated, but only half were planted. Each Experimental unit was a 20 cm pot. Substrate for the units were a soil, sand, and inoculum mixture.
The present example was designed as a pot experiment where each pot was a treatment, the treatments being untreated controls, units treated with phosphate, and units treated with phosphite. All pots were a mixture of steamed ML soil, sand, and inoculum. Control units (pots) received no other treatment. Phosphate pots were treated with K2HPO4. Phosphite pots were treated with an equivalent molarity (concentration) of P as K2HPO3.
Half of the pots (a control, phosphate, and phosphite treatments) were planted with yellow sweet clover seed. The other half of the pots (also a control, phosphate, and phosphite treatment) were not planted with any plants.
Phosphate and phosphite were added to the soil materials such that the phosphorus in each would constitute 80 mg per kg of soil (Table 6). […]

Row | SMILES | AM Infection level, % [%]
1 | OP(O)O [PO3, dipotassium phosphite] | 35
2 | O=P([O-])([O-])O.[K+].[K+] [PO4, dipotassium phosphate] | 47.5
